Experimental data from patent US6387905B2, “Compounds useful for inhibition of farnesyl protein transferase” (Schering Corporation, priority 1996, dated 2002).
Like-named read-outs stand apart in the source and are kept apart here.

Columns and labels:
[1] = biological target: farnesyl protein transferase (FPT), K-ras (Homo sapiens, UniProt P49354+P49356); experiment: FPT IC50 (K-ras), inhibition of farnesyl protein transferase, in vitro enzyme assay; format: biochemical
Method: (§1) FPT IC50 (inhibition of farnesyl protein transferase, in vitro enzyme assay) and COS Cell IC50 (Cell-Based Assay) were determined following the assay procedures described in WO 95/10516, published Apr. 20, 1995. GGPT IC50 (inhibition of geranylgeranyl protein transferase, in vitro enzyme assay), Cell Mat Assay, and anti-tumor activity (in vivo anti-tumor studies) could be determined by the assay procedures described in WO 95/10516. The disclosure of WO 95/10516 is incorporated herein by reference thereto.

[2] = biological target: farnesyl protein transferase (FPT), H-ras (Homo sapiens, UniProt P49354+P49356); experiment: FPT IC50 (H-ras), inhibition of farnesyl protein transferase, in vitro enzyme assay; format: biochemical
Method: as §1

COS Cell = COS Cell IC50 (Cell-Based Assay); details: COS
Method: as §1

Human tumor cells = experiment: Soft Agar Assay (anchorage-independent growth); format: cell-based
Method: Anchorage-independent growth is a characteristic of tumorgenic cell lines. Human tumor cells are suspended in growth medium containing 0.3% agarose and an indicated concentration of a farnesyl transferase inhibitor. The solution is overlayed onto growth medium solidified with 0.6% agarose containing the same concentration of farnesyl transferase inhibitor as the top layer. After the top layer is solidified, plates are incubated for 10-16 days at 37° C. under 5% CO2 to allow colony outgrowth. After incubation, the colonies are stained by overlaying the agar with a solution of MTT (3-[4,5-dimethyl-thiazol-2-yl]-2,5-diphenyltetrazolium bromide, Thiazolyl blue) (1 mg/mL in PBS). Colonies can be counted and the IC50's can be determined.

[3] = Table 3, H-ras, read-out: FPT IC50 (nM) (H-ras)
[4] = Table 3, read-out: COS Cell IC50
[5] = H-ras, read-out: FPT IC50 (H-ras)
[6] = Table 5, read-out: Cos Cell IC50
[7] = Homo sapiens, Table 5, read-out: Soft Agar IC50

| IC50 [1] [nM] | IC50 [2, 3] [nM] | IC50 (Human tumor cells; [7]) [nM] | SMILES | IC50 (COS Cell; [4]) [nM] | IC50 (COS Cell; [6]) [nM] | also measured |
| --- | --- | --- | --- | --- | --- | --- |
| 15.4 | – | – | O=C(CCN1CCCCC1)N1CCC(CC(=O)N2CCC([C@H]3c4ncc(Br)cc4CCc4cc(Cl)cc(Br)c43)CC2)CC1 [Example 7.0-B] | – | – | – |
| – | < 2 | – | CCOC(=O)CC(=O)N1CCC(CC(=O)N2CCC(C3c4ncc(Br)cc4CCc4cc(Cl)cc(Br)c43)CC2)CC1 (single isomer, unassigned; (+)) [Example 26] | 125 | – | melting point: 77 to 78 °C |
| 34.8 | 11.6 | – | CC(C)(C)OC(=O)N1CCC[C@H]1C(=O)N1CCC(CC(=O)N2CCC([C@H]3c4ncc(Br)cc4CCc4cc(Cl)cc(Br)c43)CC2)CC1 [Example 9] | 700 | – | – |
| 23.8 | – | – | C[C@H](N)C(=O)N1CCC(CC(=O)N2CCC([C@H]3c4ncc(Br)cc4CCc4cc(Cl)cc(Br)c43)CC2)CC1 [Example 4] | 140 | 140 | IC50 [2, 5]: 5.2 nM |
| 15.8 | – | – | Cc1nccn1CC(=O)N1CCC(CC(=O)N2CCC([C@H]3c4ncc(Br)cc4CCc4cc(Cl)cc(Br)c43)CC2)CC1 [Example 10.0-B] | – | – | – |
| 30 | 6.3 | – | C[C@H](NC(=O)OC(C)(C)C)C(=O)N1CCC(CC(=O)N2CCC([C@H]3c4ncc(Br)cc4CCc4cc(Cl)cc(Br)c43)CC2)CC1 [Example 3] | – | – | – |
| 22 | 8.4 | – | C[C@@H](NC(=O)OC(C)(C)C)C(=O)N1CCC(CC(=O)N2CCC([C@H]3c4ncc(Br)cc4CCc4cc(Cl)cc(Br)c43)CC2)CC1 [Example 5] | – | – | – |
| 12.6 | – | – | Cc1cn(CC(=O)N2CCC(CC(=O)N3CCC([C@H]4c5ncc(Br)cc5CCc5cc(Cl)cc(Br)c54)CC3)CC2)cn1 [Example 11.0-B] | – | – | – |
| 14.5 | – | – | O=C(CC1CCN(C(=O)CN2CCS(=O)(=O)CC2)CC1)N1CCC([C@H]2c3ncc(Br)cc3CCc3cc(Cl)cc(Br)c32)CC1 [Example 6.0-B] | – | – | – |
| 19.8 | 5.8 | 190 | CN(C)CCC(=O)N1CCC(CC(=O)N2CCC(C3c4ncc(Br)cc4CCc4cc(Cl)cc(Br)c43)CC2)CC1 (single isomer, unassigned; (+)) [Example 20] | 10 | – | melting point: 82 to 84 °C |
| 43.2 | 12.3 | – | CC(C)(C)OC(=O)NCC(=O)N1CCC(CC(=O)N2CCC([C@H]3c4ncc(Br)cc4CCc4cc(Cl)cc(Br)c43)CC2)CC1 [Example 1] | – | – | – |
| – | 5.1 | 250 | COC(=O)CCC(=O)N1CCC(CC(=O)N2CCC(C3c4ncc(Br)cc4CCc4cc(Cl)cc(Br)c43)CC2)CC1 (single isomer, unassigned; (+)) [Example 25] | 39 | – | melting point: 114 to 115 °C |
| 19.7 | – | – | O=C(CC1CCN(C(=O)Cn2cnc3cccnc32)CC1)N1CCC([C@H]2c3ncc(Br)cc3CCc3cc(Cl)cc(Br)c32)CC1 [Example 13.0-B] | – | – | – |
| 41 | – | – | CC(C)=NOCC(=O)N1CCC(CC(=O)N2CCC([C@H]3c4ncc(Br)cc4CCc4cc(Cl)cc(Br)c43)CC2)CC1 [Example 9.0-B] | – | – | – |
| 31 | – | 200 | C[C@@H](N)C(=O)N1CCC(CC(=O)N2CCC([C@H]3c4ncc(Br)cc4CCc4cc(Cl)cc(Br)c43)CC2)CC1 [Example 6] | 39 | 39 | IC50 [2, 5]: 8.1 nM |
| 35 | 4.4 | 250 | O=C(CC1CCN(C(=O)[C@@H]2CCCN2)CC1)N1CCC([C@H]2c3ncc(Br)cc3CCc3cc(Cl)cc(Br)c32)CC1 [Example 12] | 55 | – | – |
| – | < 2.6 | – | O=C(CCN1CCCCC1)N1CCC(CC(=O)N2CCC(C3c4ncc(Br)cc4CCc4cc(Cl)cc(Br)c43)CC2)CC1 (single isomer, unassigned; (+)) [Example 22] | 43 | – | melting point: 127 to 128 °C |

| IC50 [1] [nM] | IC50 [2, 3] [nM] | IC50 (Human tumor cells; [7]) [nM] | SMILES | IC50 (COS Cell; [4]) [nM] | IC50 (COS Cell; [6]) [nM] | also measured |
| --- | --- | --- | --- | --- | --- | --- |
| 41 | 7.4 | – | CC(C)(C)OC(=O)N[C@@H](Cc1c[nH]cn1)C(=O)N1CCC(CC(=O)N2CCC([C@H]3c4ncc(Br)cc4CCc4cc(Cl)cc(Br)c43)CC2)CC1 [Example 8] | 125 | 125 | – |
| – | 35 | – | CN(C)CCCC(=O)N1CCC(CC(=O)N2CCC(C3c4ncc(Br)cc4CCc4cc(Cl)cc(Br)c43)CC2)CC1 (single isomer, unassigned; (+)) [Example 19] | – | – | melting point: 69 to 71 °C |
| 26.7 | – | – | O=C(CC1CCN(C(=O)Cn2cnc3ccccc32)CC1)N1CCC([C@H]2c3ncc(Br)cc3CCc3cc(Cl)cc(Br)c32)CC1 [Example 12.0-B] | – | – | – |
| – | 4.8 | – | COC(=O)CCCC(=O)N1CCC(CC(=O)N2CCC(C3c4ncc(Br)cc4CCc4cc(Cl)cc(Br)c43)CC2)CC1 (single isomer, unassigned; (+)) [Example 24] | 10 | – | melting point: 101 to 102 °C |
| 71.2 | 8.3 | – | N[C@@H](Cc1ccccc1)C(=O)N1CCC(CC(=O)N2CCC([C@H]3c4ncc(Br)cc4CCc4cc(Cl)cc(Br)c43)CC2)CC1 [Example 10] | 300 | – | – |
| – | – | > 500 | COC(=O)Cc1cn(CC(=O)N2CCC(CC(=O)N3CCC([C@H]4c5ncc(Br)cc5CCc5cc(Cl)cc(Br)c54)CC3)CC2)cn1 [Cmpd 56.0-B] | – | 50 | IC50 ([2]; Table 4, read-out: FPT IC50): 3.3 nM |
| – | – | 240 | O=C1NC(=O)C(CC(=O)N2CCC(CC(=O)N3CCC([C@H]4c5ncc(Br)cc5CCc5cc(Cl)cc(Br)c54)CC3)CC2)N1 (stereo partly drawn) [Cmpd 77.0-B] | – | 14 | IC50 ([2]; Table 4, read-out: FPT IC50): 3.2 nM; IC50 (Human tumor cells; Table 5, read-out: Soft Agar IC50): 214 nM |
| 19.4 | 2.5 | 160 | CN(C)CC(=O)N1CCC(CC(=O)N2CCC(C3c4ncc(Br)cc4CCc4cc(Cl)cc(Br)c43)CC2)CC1 (single isomer, unassigned; (+)) [Example 21] | 10 | – | IC50 (Human tumor cells; Table 5, listed as 12.1, read-out: Soft Agar IC50): 90 nM |
| – | – | > 500 | O=C(Cc1cccs1)N1CCC(CC(=O)N2CCC([C@H]3c4ncc(Br)cc4CCc4cc(Cl)cc(Br)c43)CC2)CC1 [Cmpd 82.0-B] | – | < 10 | IC50 ([2]; Table 4, read-out: FPT IC50): 7.1 nM |
| – | – | – | O=C(O)CCC(=O)N1CCC(CC(=O)N2CCC([C@H]3c4ncc(Br)cc4CCc4cc(Cl)cc(Br)c43)CC2)CC1 [Example 78] | – | – | IC50 ([2]; Table 4, read-out: FPT IC50): 1.2 nM; IC50 (COS Cell; read-out: Cos Cell IC50, Table 5): 75 nM; IC50 (Human tumor cells; Homo sapiens, read-out: Soft Agar IC50, Table 5): > 500 nM |
| 49 | 15 | – | N[C@@H](Cc1c[nH]cn1)C(=O)N1CCC(CC(=O)N2CCC([C@H]3c4ncc(Br)cc4CCc4cc(Cl)cc(Br)c43)CC2)CC1 [Example 11] | – | – | – |
| – | – | – | CCOC(=O)CC(=O)N1CCC(CC(=O)N2CCC([C@H]3c4ncc(Br)cc4CCc4cc(Cl)cc(Br)c43)CC2)CC1 [Example 30] | – | – | IC50 ([2]; Table 4, read-out: FPT IC50): 2.8 nM; melting point: 77.2 to 78.1 °C |
| – | – | 110 | O=C(CC1CCN(C(=O)Cn2cncn2)CC1)N1CCC([C@H]2c3ncc(Br)cc3CCc3cc(Cl)cc(Br)c32)CC1 [Cmpd 57.0-B] | – | < 10 | IC50 ([2]; Table 4, read-out: FPT IC50): 1.8 nM |
| – | – | 190 | NC(=O)CCC(=O)N1CCC(CC(=O)N2CCC([C@H]3c4ncc(Br)cc4CCc4cc(Cl)cc(Br)c43)CC2)CC1 [Cmpd 69.0-B] | – | 25 | IC50 ([2]; Table 4, read-out: FPT IC50): 2.5 nM |
| – | – | > 500 | O=C(CC1CCN(C(=O)Cn2cnc([N+](=O)[O-])c2)CC1)N1CCC([C@H]2c3ncc(Br)cc3CCc3cc(Cl)cc(Br)c32)CC1 [Cmpd 26.0-B] | – | 30 | IC50 ([2]; Table 4, read-out: FPT IC50): 3.2 nM |
| – | – | > 500 | CC(C)(C)OC(=O)NCCCC(=O)N1CCC(CC(=O)N2CCC([C@H]3c4ncc(Br)cc4CCc4cc(Cl)cc(Br)c43)CC2)CC1 [Example 89.0-B] | – | 550 | IC50 ([2]; Table 4, read-out: FPT IC50): 8.7 nM |
